Measurements reported in the supplement of paper PMC10307832.

Tests used:
Test in all cases: relative viability (nuclei count vs DMSO), 5 days (fraction); higher = more cells survive
[1] = compound: Nc1ncn([C@H]2C[C@H](O)[C@@H](CO)O2)c(=O)n1 [Decitabine] + N=C(N)NC(=N)NCCc1ccccc1 [Phenformin] (partner 250 µM)
Method in brief: (§1)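 Relative viability divides the nuclei count in treated wells by that in vehicle wells. Lung cancer cell lines were seeded in 1536-well plates, dosed by pin tool the next day, and fixed and stained after 5 days in one step with final 0.05% Triton X-100, 1% formaldehyde and 1 ug/ml Hoechst. Dosing was a single drug or a fixed anchor-drug dose plus five library-drug doses (not always all listed) in √10 steps, and values are medians of duplicate plates imaged at 4×.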

[2] = compound: O=C(C[C@H]1NCCC[C@@H]1O)Cn1cnc2cc(Br)c(Cl)cc2c1=O (racemic) [Halofuginone] + Cc1nc(NC(=O)N2CCC[C@H]2C(N)=O)sc1-c1ccnc(C(C)(C)C(F)(F)F)c1 [Alpelisib] (partner 2 µM)
Method in brief: as §1

[3] = compound: COc1cc2c(Oc3ccc4[nH]c(C)cc4c3F)ncnc2cc1OCCCN1CCCC1 [Cediranib] + COc1cccc2cc(-c3nc([C@H]4CC[C@H](C(=O)O)CC4)n4ncnc(N)c34)[nH]c12 [OSI-027] (partner 0.5 µM)
Method in brief: as §1

[4] = compound: COc1cc2c(Oc3ccc4[nH]c(C)cc4c3F)ncnc2cc1OCCCN1CCCC1 [Cediranib] + CC1(C)CCC(c2ccc(Cl)cc2)=C(CN2CCN(c3ccc(C(=O)NS(=O)(=O)c4ccc(N[C@H](CCN5CCOCC5)CSc5ccccc5)c(S(=O)(=O)C(F)(F)F)c4)cc3)CC2)C1 [Navitoclax] (partner 0.5 µM)
Method in brief: as §1

UMC-11
relative viability ([1]; first compound 0.04 µM): 0.31
relative viability ([1]; first compound 0.1265 µM): 0.32
relative viability ([1]; first compound 0.4 µM): 0.308
relative viability ([1]; first compound 1.265 µM): 0.266
relative viability ([1]; first compound 4 µM): 0.274
relative viability ([2]; first compound 0.001 µM): 1.04
relative viability ([2]; first compound 0.003162 µM): 0.909
relative viability ([2]; first compound 0.01 µM): 0.989
relative viability ([2]; first compound 0.03162 µM): 0.885
relative viability ([2]; first compound 0.1 µM): 0.457
relative viability ([3]; first compound 0.04 µM): 0.461
relative viability ([3]; first compound 0.4 µM): 0.473
relative viability ([3]; first compound 4 µM): 0.488
relative viability ([4]; first compound 0.04 µM): 0.328
relative viability ([4]; first compound 0.1265 µM): 0.293
relative viability ([4]; first compound 0.4 µM): 0.322
relative viability ([4]; first compound 1.265 µM): 0.321
relative viability ([4]; first compound 4 µM): 0.359
